Measured values taken from patent US20260000642A1 (Tay Therapeutics Limited, priority 2022, published 2026).

System: collagen-induced arthritis in Lewis rats
Assay: CIA model: histopathologic analysis of H&E-stained hind limbs
Type: in vivo, Lewis rat
[1] = CIA rats, 30 mg/kg (Group 7), seven of eight samples
[2] = hind limbs, CIA induced, 8 animals examined, comparator groups 3-4, dose not given

CNC(=O)c1[nH]c(C(=O)NC2CCC2)cc1O[C@@H](C)c1ccccc1 [Example 101, N^5-cyclobutyl-N^2-methyl-3-(1-phenylethoxy)-1H-pyrrole-2,5-dicarboxamide] was tested, and the “articular cartilage erosion or ulcers” value (CIA rats, 3 mg/kg (Group 5)) was “mild to moderate”, the “granulation tissue (pannus)” value (CIA rats, 3 mg/kg (Group 5)) was “mild to moderate” and the “increased eroded surface of bone (bone resorption)” value (shortened to “increased eroded surface of bone”) (CIA rats, 3 mg/kg (Group 5)) was “mild to moderate”. For the same compound, the “increased periosteal bone (periosteal bone formation)” value (from here on “increased periosteal bone”) (CIA rats, 3 mg/kg (Group 5)) was “mild to moderate”, the mixed cell inflammation (CIA rats, 3 mg/kg (Group 5)) was “moderate to marked” and the “erosion in the articular cartilages” value (CIA rats, 10 mg/kg (Group 6)) was “moderate”. The “granulation tissue (pannus)” value (CIA rats, 10 mg/kg (Group 6)) was “moderate”, the “increased eroded surface of bone” value (CIA rats, 10 mg/kg (Group 6)) was “moderate” and the “increased periosteal bone” value (CIA rats, 10 mg/kg (Group 6)) was “moderate”. The mixed cell inflammation (CIA rats, 10 mg/kg (Group 6)) was “moderate”, the “samples with no recorded pathological observations” value (CIA rats, 30 mg/kg (Group 7)) was “One out of eight samples” and the “erosion in the articular cartilages” value [1] was “mild”. The “granulation tissue (pannus)” value [1] was “moderate”, the “increased eroded surface of bone” value [1] was “mild” and the “increased periosteal bone” value [1] was “mild”. For the same compound, the mixed cell inflammation [1] was “moderate”, the “pathologic observations after microscopic evaluation (overall)” value (CIA rats, Groups 5-7 (3, 10, 30 mg/kg)) was “at lower levels relative to samples from animals in the CIA-induced group (Group 2) in a dose-dependent manner” and the “Erosion/Ulcer, cartilaginous, Mild, number of animals” value (hind limbs, CIA induced, 8 animals examined, 30 mg/kg (Group 7)) was 4.

With C[C@@H]1C[C@H]2[C@@H]3CCC4=CC(=O)C=C[C@]4(C)[C@@]3(F)[C@@H](O)C[C@]2(C)[C@@]1(O)C(=O)CO [dexamethasone] the “Erosion/Ulcer, cartilaginous, Marked, number of animals” value [2] was 0, the “Erosion/Ulcer, cartilaginous, Mild, number of animals” value [2] was 0 and the “Erosion/Ulcer, cartilaginous, Minimal, number of animals” value [2] was 0. The “Erosion/Ulcer, cartilaginous, Moderate, number of animals” value [2] was 0, the “Granulation tissue, Marked, number of animals” value [2] was 0 and the “Granulation tissue, Mild, number of animals” value [2] was 0. The “Granulation tissue, Minimal, number of animals” value [2] was 0, the “Granulation tissue, Moderate, number of animals” value [2] was 0 and the “Increased bone, periosteum, Marked, number of animals” value [2] was 0. The “Increased bone, periosteum, Mild, number of animals” value [2] was 0, the “Increased bone, periosteum, Minimal, number of animals” value [2] was 0 and the “Increased bone, periosteum, Moderate, number of animals” value [2] was 0. The “Increased eroded surface, bone, Marked, number of animals” value [2] was 0, the “Increased eroded surface, bone, Mild, number of animals” value [2] was 0 and the “Increased eroded surface, bone, Minimal, number of animals” value [2] was 0. The “Increased eroded surface, bone, Moderate, number of animals” value [2] was 0, the “Mixed cell inflammation, Marked, number of animals” value [2] was 0 and the “Mixed cell inflammation, Mild, number of animals” value [2] was 0. For the same compound, the “Mixed cell inflammation, Minimal, number of animals” value [2] was 0, the “Mixed cell inflammation, Moderate, number of animals” value [2] was 0 and the “No Visible Lesions, number of animals” value [2] was 8.
